Measurements reported in US12648941B2, “Piperidine urea derivatives for use as inotropic agents” (Helsinn Healthcare SA, priority 2021, dated 2026).
Where two headings read alike, the source gives them in different places.

Experiment: Phase 1 single ascending dose study, plasma pharmacokinetics
Type: in vivo, human
Details: for AUClast/D / Cmax/D / AUC∞/D / CL/F / λz / AUC(0-t) / Cmax / AUC(0-inf) / MRT / Vd/F: geometric mean; for AUC(0-t): po; for Vd/F: read-out: Vz/F
Procedure: Single-center, randomized, double-blind, placebo-controlled, single ascending dose (SAD) study.
Screening examinations were performed within 28 days prior to dosing. Eligible subjects returned to the study center in the morning of Day-1 and remained in-patient until discharge at 72 hours after dosing (morning of Day 4) if there were no safety issues. The oral dose was administered in the morning of Day 1. Subjects returned to the clinic 7 days after treatment, in the morning of Day 8 (±1 day), for the safety assessments.
Healthy male non-smoking subjects, between 18 and 50 years of age inclusive, with a body mass index (BMI) between 18.5 and 29.9 kg/m^2 inclusive. Cohorts of 8 subjects per dose step were planned. Cohort 1 (10 mg or placebo) was stopped after dosing of 4 subjects. Cohorts 2 to 4 consisted of 8 subjects each, i.e., a total number of 28 subjects were randomized and completed the study. There were no withdrawals.
HM01 HCl powder in gelatine capsules. Capsules with the strength of 0.1 mg and 1.0 mg and 10 mg for cohort 1 were available. • Cohort 1:10 mg HM01 • Cohort 2:0.1 mg HM01 Cohort 3:0.3 mg HM01 Cohort 4:1.0 mg HM01
Subjects were dosed in a fasted state (no food for at least 8 hours). Access to food was restricted until 4 hours after dosing. Capsules were administered orally together with 240 mL water.
Blood samples for analytical assay of HM01 and the 3 major metabolites (M2, M6 and M9) were collected at pre-dose (within 60 minutes prior to drug administration), and at 0.25, 0.5, 1, 1.5, 2, 3, 4, 6, 8, 12, 16, 24, 30, 36, 48, 60 and 72 hours post dose (18 samples). Urine was collected for 24 hours after dosing. Blood and urine samples were analyzed for HM01 and its metabolites concentrations using validated LC-MS/MS methods.
PK parameters estimated included Cmax (maximum observed concentration), Cmax/D (Cmax per dose unit), tmax (peak time), Clast (last measurable concentration above the lower limit of quantification), tlast (time of Clast), AUC(0-24) and AUClast (area under the plasma concentration-time curve from time zero to 24 hours and to the last measurable concentration, tlast, respectively), AUClast/D (AUClast per dose unit), AUC∞(area under the plasma concentration-time curve from time zero to infinity), AUC∞(/D (AUC∞ per dose unit), t1/2 (apparent terminal half-life), CL/F (systemic clearance after extravascular administration, only for the parent drug), Vz/F (apparent volume of distribution after extravascular administration, only for the parent drug), MRT (mean residence time).

[1] = 0.1 mg HM01 single oral dose, N = 6
[2] = 0.3 mg HM01 single oral dose, N = 6
[3] = 0.3 mg HM01 single oral dose, n = 5
[4] = 1.0 mg HM01 single oral dose, N = 6
[5] = 10 mg HM01 single oral dose, N = 3
[6] = male, human, plasma, 0.3 mg HM01 single oral dose, n = 5
[7] = male, human, plasma, 1.0 mg HM01 single oral dose, N = 6
[8] = male, human, plasma, 10 mg HM01 single oral dose, N = 3

## COc1ccc([C@H](C)NC(=O)N(C)[C@@H]2CCN(C)CC2(C)C)c(Cl)c1Cl.Cl [AC01/HM01, 1-[(1S)-1-(2,3-dichloro-4-methoxyphenyl)ethyl]-3-methyl-3-[(4R)-1-methyl-3,3-dimethyl-4-piperidyl]-urea]
[1]
  AUClast/D: 4.899 (h * ng/mL)/mg
  Cmax/D: 1.357 (ng/mL)/mg
0.1 mg HM01 single oral dose, N = 6, median
  tlast: 8.00 h
[2]
  AUClast/D: 9.396 (h * ng/mL)/mg
  Cmax/D: 0.9554 (ng/mL)/mg
0.3 mg HM01 single oral dose, N = 6, median
  tlast: 16.00 h
[3]
  AUC∞/D: 15.19 (h * ng/mL)/mg
  CL/F: 65.8 L/h
  λz: 0.0821 h⁻¹
[4]
  AUClast/D: 14.71 (h * ng/mL)/mg
  AUC∞/D: 16.94 (h * ng/mL)/mg
  CL/F: 59.0 L/h
  Cmax/D: 1.280 (ng/mL)/mg
  λz: 0.0648 h⁻¹
1.0 mg HM01 single oral dose, N = 6, median
  tlast: 36.00 h
[5]
  AUClast/D: 17.61 (h * ng/mL)/mg
  AUC∞/D: 17.88 (h * ng/mL)/mg
  CL/F: 55.9 L/h
  Cmax/D: 1.528 (ng/mL)/mg
  λz: 0.0646 h⁻¹
10 mg HM01 single oral dose, N = 3, median
  tlast: 72.00 h
male, human, plasma, oral, similar for all doses, read-out: arithmetic mean half-life of HM01
  half-life: 9 to 11 h
male, human, plasma, oral, similar for all doses, read-out: geometric mean clearance of HM01
  clearance: 932 to 1100 mL/min
male, human, plasma, oral, similar for all doses, read-out: median tmax of HM01
  Tmax: 3 to 4 h
male, human, plasma, oral, similar for all doses, read-out: volume of distribution of HM01
  apparent volume of distribution (Vz/F): 801 to 911 L
male, human, plasma, 0.1 mg, 0.1 mg HM01 single oral dose, fasted healthy males, N = 6, read-out: AUClast
  AUC(0-t): 0.49 ng·h/mL
male, human, plasma, 0.3 mg, 0.3 mg HM01 single oral dose, N = 6, read-out: AUClast
  AUC(0-t): 2.82 ng·h/mL
male, human, plasma, 0.3 mg, 0.3 mg HM01 single oral dose, fasted healthy males, N = 6, read-out: AUC0-24h
  AUC(0-t): 3.75 ng·h/mL
male, human, plasma, 1 mg, 1.0 mg HM01 single oral dose, N = 6, read-out: AUClast
  AUC(0-t): 14.7 ng·h/mL
male, human, plasma, 1 mg, 1.0 mg HM01 single oral dose, fasted healthy males, N = 6, read-out: AUC0-24h
  AUC(0-t): 13.4 ng·h/mL
male, human, plasma, 10 mg, 10 mg HM01 single oral dose, N = 3, read-out: AUClast
  AUC(0-t): 176 ng·h/mL
male, human, plasma, 10 mg, 10 mg HM01 single oral dose, fasted healthy males, N = 3, read-out: AUC0-24h
  AUC(0-t): 149 ng·h/mL
male, human, plasma, 0.1 mg HM01 single oral dose, N = 6
  Cmax: 0.136 ng/mL
male, human, plasma, 0.1 mg HM01 single oral dose, N = 6, median, read-out: tmax
  Tmax: 3 h
male, human, plasma, 0.3 mg HM01 single oral dose, N = 6
  Cmax: 0.287 ng/mL
male, human, plasma, 0.3 mg HM01 single oral dose, N = 6, median, read-out: tmax
  Tmax: 4 h
male, human, plasma, 0.3 mg HM01 single oral dose, n = 5, arithmetic mean, read-out: t1/2 (converted)
  half-life: 8.83 h
[6]
  AUC(0-inf): 4.56 ng·h/mL
  MRT: 14.4 h
  Vd/F: 801 L
male, human, plasma, 1.0 mg HM01 single oral dose, N = 6, arithmetic mean, read-out: t1/2 (converted)
  half-life: 11 h
[7]
  AUC(0-inf): 16.9 ng·h/mL
  Cmax: 1.28 ng/mL
  MRT: 15.3 h
  Vd/F: 911 L
male, human, plasma, 1.0 mg HM01 single oral dose, N = 6, median, read-out: tmax
  Tmax: 4 h
male, human, plasma, 10 mg HM01 single oral dose, N = 3, arithmetic mean, read-out: t1/2 (converted)
  half-life: 10.9 h
[8]
  AUC(0-inf): 179 ng·h/mL
  Cmax: 15.3 ng/mL
  MRT: 14.2 h
  Vd/F: 866 L
male, human, plasma, 10 mg HM01 single oral dose, N = 3, median, read-out: tmax
  Tmax: 3 h
Single oral doses of HM01
  dose dependence of AUC∞: dose proportional increase
  dose dependence of max: dose proportional increase
